Experimental data published in patent publication US20260374739A1, “SMALL MOLECULAR WEIGHT CHEMICAL COMPOUND TO ANTAGONIZE EPH-EPHRIN TETRAMERIZATION AND INHIBIT BIDIRECTIONAL SIGNALING” (THE BOARD OF REGENTS OF THE UNIVERSITY OF TEXAS SYSTEM, priority 2022, published 2026).
Values joined by “and” are separate entries in the source; they are usually repeats but may differ in a detail not shown here. Identical values can stand only once. Counter-ions that a name gives are not always drawn. Marks after values point to notes of the source that are not given here.

Assays:
EphrinB2-EphB1 = biological target: T1, EphrinB2-EphB1 (Homo sapiens, UniProt P54762); test: Octet 80 sec association/500 sec dissociation, immobilized human EphrinB2-Fc binding to soluble human EphB1-His; details: for EphB1 Inhibition Percent, Inhibition of Association ONLY: at 3.2 μM and 80 seconds; for EphB1 Inhibition Percent, Inhibition of Association ONLY / EphB1 Inhibition Percent, Inhibition of Association-Dissociation: immobilized human EphrinB2, 25 nM soluble human EphB1; for EphB1 Inhibition Percent, Inhibition of Association-Dissociation: at 3.2 μM and 580 seconds
T1 construct: soluble human EphB1-His, EphB2-His, and EphB4-His ectodomains; commercially available human EphrinB1-Fc (EB1), EphrinB2-Fc (EB2), and EphrinB3-Fc (EB3) ectodomain proteins; purchased
T1 sequence (P54762 18-540 limits assumed): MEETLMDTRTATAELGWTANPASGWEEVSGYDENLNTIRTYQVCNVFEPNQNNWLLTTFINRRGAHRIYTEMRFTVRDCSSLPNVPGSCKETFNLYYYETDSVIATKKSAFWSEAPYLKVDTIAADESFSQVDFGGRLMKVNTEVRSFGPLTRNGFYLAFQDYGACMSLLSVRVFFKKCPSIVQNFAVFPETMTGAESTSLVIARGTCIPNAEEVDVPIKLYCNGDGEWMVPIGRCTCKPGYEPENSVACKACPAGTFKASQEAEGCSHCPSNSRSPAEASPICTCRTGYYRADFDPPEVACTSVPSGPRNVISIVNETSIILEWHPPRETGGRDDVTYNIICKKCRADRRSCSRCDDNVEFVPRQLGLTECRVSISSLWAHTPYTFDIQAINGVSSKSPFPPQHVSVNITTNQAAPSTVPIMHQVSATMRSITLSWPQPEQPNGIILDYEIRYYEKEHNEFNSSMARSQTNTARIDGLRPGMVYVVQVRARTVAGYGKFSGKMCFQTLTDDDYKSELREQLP
Procedure: (§1) In another experiment, whether certain A20 analogs might have specificity for different Eph receptors was tested. An Octet RED384 system was used to obtain biophysical ON-OFF binding data (association-dissociation) for the three different human EphrinB2-EphB1, EphrinB2-EphB2, and EphrinB2-EphB4 protein-protein interactions and to assess the effect of A20 chemicals on the binding kinetics.
(§2) FIGS. 72A-72C show three example Octet sensorgram response traces for the immobilized human EphrinB2 ectodomain protein binding to soluble forms of the human EphB1, EphB2, and EphB4 ectodomain proteins, in the absence or presence of an A20 chemical (buffer conditions are always PBSTD:PBS with 0.05% Tween-20, 1% DMSO, and +/− indicated chemical). After loading EphrinB2-Fc protein to Octet AHC biosensors, washing, and obtaining stable baseline measurements in the appropriate PBSTD (either with or without indicated chemical), the sensors are placed in its buffer that also contains the indicated soluble EphB protein for the association step (0-80″), and then returned to its buffer for the dissociation step (81″-580″). In each figure (FIGS. 72A-72C), a sensorgram run using 10 μM of the 2×HCl salt form of A20-I is compared to the no compound control run to exemplify the maximum level of reduced response signal typically obtained with a potent A20 chemical.
(§3) Because the response levels during the dissociation step plateau for the EphrinB2-EphB2 and EphrinB2-EphB1 interactions by the first 80″, AUCs were also calculated for run data encompassing the first 160″ of each experiment to account for both the 80″ association data (red asterisks) and the first 80″ of dissociation data (marked by green line and asterisks).
(§4) The selectivity of another A20 analog (a 3×HCL salt form of compound BQPB4) in comparison to previously tested compound, A20-1, was tested as described in Example 27 above.
(§5) Further to the experiments listed above, a series of dose-response experiments were conducted to determine the IC50 of a selected A20 chemical (A20-1) on the kinetics of human EphrinB2 ligand ectodomain protein binding to its cognate human EphB1, EphB2, and EphB4 receptor ectodomain proteins. FIG. 74A-74C are representative sensorgrams showing the effect of 0, 0.1, 0.2, 0.4, 0.8, 1.6, and 3.2 μM, concentrations of the 2×HCl salt of A20-I along with a 10 μM max standard (also A20-1) on three different Ephrin-EphB interactions (e.g., EphB1 in FIG. 74A, EphB2 in FIG. 74B and EphB4 in FIG. 74C). […] Additional IC50 values were determined at specific timepoints, at 75″ into the association step and at 55″ into the dissociation step (135″).
(§6) All absolute and relative IC50 values are provided in the Table 6 below, where absolute are based off the full binding sensorgram traces, and relative are based off of the max control traces.
(§7) In another experiment, the % inhibition for various A20 analog chemicals against the three different EphrinB2-EphB protein interactions was determined. Specifically, the percent inhibition for immobilized human EphrinB2-Fc binding to 25 nM soluble human EphB1-His (FIG. 76A, enlarged in FIG. 76D), EphB2-His (FIG. 76B, enlarged in FIG. 76E), and EphB4-His (FIG. 76C, enlarged in FIG. 76F) with 3511-I, 8009-9255, QTM-Br, A19, A19-NO2, and IM (all at 3.2 μM) was determined.

EphrinB2-EphB2 = biological target: T2, EphrinB2-EphB2 (Homo sapiens, UniProt P29323); test: Octet 80 sec association/500 sec dissociation, immobilized human EphrinB2-Fc binding to soluble human EphB2-His; details: for % Inhibition: Association + Dissociation (160 sec) / % Inhibition: Association ONLY (80 sec): EphB2, 25 nM EphB2, 3.2 μM compound, A20-I as max control, 0* = less than 0, no inhibition; for EphB2 Inhibition Percent, Inhibition of Association ONLY: at 3.2 μM and 80 seconds; for EphB2 Inhibition Percent, Inhibition of Association ONLY / EphB2 Inhibition Percent, Inhibition of Association-Dissociation: immobilized human EphrinB2, 25 nM soluble human EphB2; for EphB2 Inhibition Percent, Inhibition of Association-Dissociation: at 3.2 μM and 580 seconds
T2 construct: soluble human EphB1-His, EphB2-His, and EphB4-His ectodomains; commercially available human EphrinB1-Fc (EB1), EphrinB2-Fc (EB2), and EphrinB3-Fc (EB3) ectodomain proteins; purchased
T2 sequence (P29323 19-543 limits assumed): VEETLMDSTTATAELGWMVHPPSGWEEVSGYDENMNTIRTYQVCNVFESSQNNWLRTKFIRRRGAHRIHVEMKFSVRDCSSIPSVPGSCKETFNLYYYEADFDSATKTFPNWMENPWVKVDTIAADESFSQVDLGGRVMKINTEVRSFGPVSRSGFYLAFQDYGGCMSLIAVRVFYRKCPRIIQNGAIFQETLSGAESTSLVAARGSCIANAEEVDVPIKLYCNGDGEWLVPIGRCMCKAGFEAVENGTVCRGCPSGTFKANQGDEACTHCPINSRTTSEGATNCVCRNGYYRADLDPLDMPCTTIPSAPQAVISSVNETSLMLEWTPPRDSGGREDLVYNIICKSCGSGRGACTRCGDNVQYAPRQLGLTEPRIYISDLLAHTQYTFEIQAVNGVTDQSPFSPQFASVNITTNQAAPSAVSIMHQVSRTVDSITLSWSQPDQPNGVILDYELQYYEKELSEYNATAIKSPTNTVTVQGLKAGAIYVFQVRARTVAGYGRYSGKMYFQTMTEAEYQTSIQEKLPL
Procedure: as §1, §2, §3, §4, §5, §6, §7

EphrinB2-EphB4 = biological target: T3, EphrinB2-EphB4 (Homo sapiens, UniProt P54760); test: Octet 80 sec association/500 sec dissociation, immobilized human EphrinB2-Fc binding to soluble human EphB4-His; details: for EphB4 Inhibition Percent, Inhibition of Association ONLY: at 3.2 μM and 80 seconds; for EphB4 Inhibition Percent, Inhibition of Association ONLY / EphB4 Inhibition Percent, Inhibition of Association-Dissociation: immobilized human EphrinB2, 25 nM soluble human EphB4; for EphB4 Inhibition Percent, Inhibition of Association-Dissociation: at 3.2 μM and 580 seconds
T3 construct: soluble human EphB1-His, EphB2-His, and EphB4-His ectodomains; commercially available human EphrinB1-Fc (EB1), EphrinB2-Fc (EB2), and EphrinB3-Fc (EB3) ectodomain proteins; purchased
T3 sequence (P54760 16-539 limits assumed): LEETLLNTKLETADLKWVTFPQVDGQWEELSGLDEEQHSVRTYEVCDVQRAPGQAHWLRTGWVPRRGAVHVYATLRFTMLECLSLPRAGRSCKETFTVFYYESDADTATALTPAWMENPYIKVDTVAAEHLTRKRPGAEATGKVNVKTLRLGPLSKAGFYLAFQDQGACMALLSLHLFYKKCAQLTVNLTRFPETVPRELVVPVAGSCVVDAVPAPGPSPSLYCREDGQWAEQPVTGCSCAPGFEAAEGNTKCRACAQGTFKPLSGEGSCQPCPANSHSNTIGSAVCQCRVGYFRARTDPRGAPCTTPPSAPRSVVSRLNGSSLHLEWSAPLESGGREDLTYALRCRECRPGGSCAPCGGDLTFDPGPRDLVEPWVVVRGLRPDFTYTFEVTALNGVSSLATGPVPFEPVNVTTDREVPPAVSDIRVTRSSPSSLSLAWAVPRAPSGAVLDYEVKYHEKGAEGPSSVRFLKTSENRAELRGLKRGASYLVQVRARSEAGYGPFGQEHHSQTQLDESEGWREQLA
Procedure: as §1, §2, §3, §4, §5, §6, §7

[1] = listed as A20-1.2xMSA, methanesulfonate
[2] = EphB1, 25 nM EphB1, 3.2 μM compound, A20-I as max control, 0* = less than 0, no inhibition
[3] = EphB4, 25 nM EphB4, 3.2 μM compound, A20-I as max control, 0* = less than 0, no inhibition

Structure (SMILES)	EphB1 Inhibition Percent, Inhibition of Association-Dissociation (EphrinB2-EphB1)	EphB2 Inhibition Percent, Inhibition of Association ONLY (EphrinB2-EphB2)	EphB2 Inhibition Percent, Inhibition of Association-Dissociation (EphrinB2-EphB2)	EphB4 Inhibition Percent, Inhibition of Association ONLY (EphrinB2-EphB4)	EphB4 Inhibition Percent, Inhibition of Association-Dissociation (EphrinB2-EphB4)	EphB1 Inhibition Percent, Inhibition of Association ONLY (EphrinB2-EphB1)	further results
Oc1c(I)cc(CN2CCOCC2)c2cccnc12 [Compound 89, 4-((8-hydroxy-7-iodoquinolin-1-ium-5-yl)methyl)morpholin-4-ium methanesulfonate]	–	–	–	–	–	–	% Inhibition: Association + Dissociation (160 sec) (EphrinB2-EphB1; EphB1, 25 nM EphB1, 3.2 μM compound, A20-I as max control, 0* = less than 0, no inhibition, listed as A20-1.2xMSA, methanesulfonate): 46.3%; EphB1 Inhibition Percent, Inhibition of Association ONLY (EphrinB2-EphB1; methanesulfonate): 28.4%; EphB1 Inhibition Percent, Inhibition of Association-Dissociation (EphrinB2-EphB1; methanesulfonate): 46.3%; % Inhibition: Association + Dissociation (160 sec) (EphrinB2-EphB2; [1]): 74.6%; % Inhibition: Association ONLY (80 sec) (EphrinB2-EphB2; [1]): 55.1%; EphB2 Inhibition Percent, Inhibition of Association ONLY (EphrinB2-EphB2; methanesulfonate): 55.1%; EphB2 Inhibition Percent, Inhibition of Association-Dissociation (EphrinB2-EphB2; methanesulfonate): 74.6%; EphB4 Inhibition Percent, Inhibition of Association ONLY (EphrinB2-EphB4; methanesulfonate): 1.7%; EphB4 Inhibition Percent, Inhibition of Association-Dissociation (EphrinB2-EphB4; methanesulfonate): 25.4%
Oc1ccc(CN2CCN(Cc3ccc(C(F)(F)F)cc3)CC2)c2cccnc12 [Compound 49, 8-hydroxy-5-((4-(4-(trifluoromethyl)benzyl)piperazin-1-ium-1-yl)methyl)quinolin-1-ium chloride]	19.8% and 39.0%	21.3% and 24.9%	46.2% and 36.2%	0*/0*%	0% and 2.8%	–	–
Oc1cccc2cccnc12 [Compound 102, 8-Hydroxyquinoline, reference compound]	0*%	0*%	0*%	0*%	0*%	0*%	% Inhibition: Association + Dissociation (160 sec) (EphrinB2-EphB1; [2]): 0* %; % Inhibition: Association ONLY (80 sec) (EphrinB2-EphB1; [2]): 0* %; inhibition of EphrinB2-EphB interactions (EphrinB2-EphB2; 3.2 μM, EphB1, EphB2 and EphB4): unable to disrupt any of the EphrinB2-EphB interactions; % Inhibition: Association + Dissociation (160 sec) (EphrinB2-EphB2): 0* %; % Inhibition: Association ONLY (80 sec) (EphrinB2-EphB2): 0* %; % Inhibition: Association + Dissociation (160 sec) (EphrinB2-EphB4; [3]): 0* %; % Inhibition: Association ONLY (80 sec) (EphrinB2-EphB4; [3]): 0* %
Oc1ccc(CN2CCN(C3CCCC3)CC2)c2cccnc12 [Compound 83, 5-((4-cyclopentylpiperazin-1-yl)methyl)quinolin-8-ol]	23.6%	20.9%	21.2%	0.5%	0.5%	21.4%	–
COc1ccccc1N1CCN(Cc2cc(I)c(O)c3ncccc23)CC1 [Compound 71-A, 7-iodo-5-((4-(2-methoxyphenyl)piperazin-1-yl)methyl)quinolin-8-ol dihydrochloride]	52.3%	58.7%	73.2%	17.5%	35.6%	39.6%	–
